From patent publication US20210228548A1, “PHARMACEUTICAL COMPOSITION FOR PREVENTING, ALLEVIATING OR TREATING OSTEOARTHRITIS, CONTAINING RHODANINE DERIVATIVE AS ACTIVE INGREDIENT” (Avixgen Inc., priority 2018, published 2021)
“Also recorded” adds a separate entry of the source.

What was measured:
Format in all cases: in vivo, C57/BL6 mice
[1] = test system: mice with osteoarthritis induced by DMM; assay: Osteoarthritis induced by destabilization of the medial meniscus (DMM): staining, OARSI grade, subchondral bone plate thickness; settings: intra-articular 0.0075, 0.015, 0.03 mg/kg once a week, three injections; for thickness of the subchondral bone plate (SBP): versus vehicle group (significantly increased), FIGS. 8B, 10B, 12B; for inflammation response in whole joint and cartilage tissues (images and OARSI grade): versus vehicle group, FIGS. 7B, 9B, 11B, 8A, 10A, 12A
Procedure: Mice with osteoarthritis induced by destabilization of the medial meniscus (DMM) were prepared. As a control group, a group (sham) whose meniscus was not damaged during surgery was used.
Specifically, osteoarthritis was induced by damaging the menisci of joints of about 12-week-old male C57/BL6 mice, and each therapeutic agent (AVIX-7, MA3001 or MA6004) was injected intra-articularly.
(§1) Each of the therapeutic agents was used at doses of 0.0075 mg/kg, 0.015 mg/kg and 0.03 mg/kg mouse body weight. Each therapeutic agent was administered by injection once a week, and the amount of each therapeutic agent administered at each time point was 10 μl. One week after the day of the last injection of a total of three injections, the mice were sacrificed and the effect of each therapeutic agent on the amelioration of osteoarthritis was evaluated.
In order to evaluate the effect of the compounds of the present disclosure on the amelioration of osteoarthritis, mice were subjected to destabilization of the medial meniscus (DMM) to induce osteoarthritis and were treated with AVIX-7, MA3001 or MA6004. In addition, the cartilage and joint tissues were stained with hematoxylin-eosin/safranin-O, and the effect of AVIX-7, MA3001 or MA6004 on the amelioration of osteoarthritis was evaluated pathologically. […] The OARSI grading method is described in Table 4 below.

ZIP8-overexpressing mice [2] = assay: Cartilage destruction in mice with osteoarthritis induced by ZIP8 overexpression (safranin-O staining, modified Mankin score); settings: Ad-ZIP8 mice, three injections; for modified Mankin score (degree of cartilage destruction): intra-articular 0.0075, 0.015, 0.03 mg/kg once a week, vehicle group 2 or higher, also decreased concentration-dependently, FIGS. 2A, 4A, 6A; for loss of the cartilage matrix (safranin-O staining of whole joint and cartilage): intra-articular co-injection 0.0075, 0.015, 0.03 mg/kg once a week, versus vehicle group, FIGS. 1, 3, 5
Procedure: (§2) Osteoarthritis-induced mice were prepared by overexpressing the zinc importer ZIP8 in the cartilage and joint tissues of mice.
(§3) Specifically, the cartilage and joint tissues of about 12-week-old male C57/BL6 mice were injected intra-articularly with a normal control adenovirus (Ad-C) or a ZIP8-expressing adenovirus (Ad-S1c39a8). A vehicle group was treated only with a vehicle without a vector. Each of the adenoviruses was injected at a concentration of 1×10^9 PFU a total of three times (once a week).
(§4) Meanwhile, in order to evaluate the effect of each of the therapeutic agents AVIX-7, MA3001 and MA6004 on the amelioration of osteoarthritis induced by ZIP8 overexpression, AVIX-7, MA3001 or MA6004 was co-injected into the joint when each adenovirus was injected.
as §1, with “degree” for “effect”, “cartilage destruction and” for “each therapeutic agent on”, “degree” for “amelioration”, “occurrence of synovitis were analyzed.” for “osteoarthritis was evaluated.”
In order to evaluate the therapeutic effect of AVIX-7, MA3001 or MA6004 on osteoarthritis in ZIP8-overexpressing mice, whole joint and cartilage tissues were stained with safranin-O and the degree of cartilage destruction was checked.
In addition, the degree of safranin-O staining (reflecting the degree of cartilage destruction) according to Table 2 below was observed and degraded according to the modified Mankin score (Mankin, Henry J., and Louis Lippiello. JBJS 52.3 (1970): 424-434.), and the grades were quantified graphically. The Mankin score is an index indicating the degree of arthritis and may be determined by the degree of safranin-O staining in mice, and the lower the Mankin score, the closer to normal.

ZIP8-overexpressing mice [3] = assay: Synovitis in ZIP8-overexpressing animal model (hematoxylin-eosin/safranin-O staining, synovitis score); settings: Ad-ZIP8 mice, intra-articular 0.0075, 0.015, 0.03 mg/kg once a week, three injections; for score of synovitis: untreated ZIP8 mice 2 or higher, FIGS. 2B, 4B, 6B; for inflammatory response (penetration of inflammatory cells into the synovium): versus vehicle group, FIGS. 1, 3, 5
Procedure: as §2, §3, §4
as §1, with “degree” for “effect”, “cartilage destruction and” for “each therapeutic agent on”, “degree” for “amelioration”, “occurrence of synovitis were analyzed.” for “osteoarthritis was evaluated.”
In order to evaluate the osteoarthritis amelioration effect of each of the therapeutic agents developed in the present disclosure, the ZIP8-overexpressing animal model was treated with AVIX-7, MA3001 or MA6004, and the cartilage and joint tissues of the animal model were stained with hematoxylin-eosin/safranin-O, and the presence or absence of synovitis was checked. The ZIP8-overexpressing animal model was prepared by the method described in Example 1.
In addition, the degree of synovitis was scored according to “Synovitis score: discrimination between chronic low-grade and high-grade synovitis. Histopathology 49, 358-364” described in Table 3 below, and was quantified graphically.

| Structure (SMILES) | thickness of the subchondral bone plate (SBP) [1] | inflammation response in whole joint and cartilage tissues (images and OARSI grade) [1] | modified Mankin score (degree of cartilage destruction) (ZIP8-overexpressing mice [2]) | loss of the cartilage matrix (safranin-O staining of whole joint and cartilage) (ZIP8-overexpressing mice [2]) | score of synovitis (ZIP8-overexpressing mice [3]) | inflammatory response (penetration of inflammatory cells into the synovium) (ZIP8-overexpressing mice [3]) |
| --- | --- | --- | --- | --- | --- | --- |
| O=C(O)CCN1C(=O)/C(=C\c2ccc(-c3ccc(Cl)cc3)o2)SC1=S [AVIX-7, 3-{5-[5-(4-chlorophenyl)-furan-2-ylmethylene]-4-oxo-2-thioxo-thiazolidin-3-yl}-propionic acid] | decreased | alleviated | lower than that of the vehicle group | rescuing the loss of cartilage matrix; also recorded: concentration-dependently rescued | significantly decreased | alleviating synovitis; also recorded: alleviated |
| CC(C)OC(=O)c1ccc(-c2ccc(/C=C3\SC(=S)N(CCCC(=O)O)C3=O)o2)cc1 [MA3001, 4-(5-((5-(4-(isopropoxycarbonyl)phenyl)furan-2-yl)methylene)-4-oxo-2-thioxothiazolidin-3-yl)butanoic acid] | decreased | alleviated | lower than that of the vehicle group | rescuing the loss of cartilage matrix; also recorded: concentration-dependently rescued | significantly decreased | alleviating synovitis; also recorded: alleviated |
| O=C(O)CCN1C(=O)SC(Cc2ccc(-c3ccc(Cl)cc3)o2)C1=O (stereo not drawn) [MA6004, 3-(5-((5-(4-chlorophenyl)furan-2-yl)methyl)-2,4-dioxothiazolidin-3-yl)propionic acid] | decreased | alleviated | lower than that of the vehicle group | rescuing the loss of cartilage matrix; also recorded: concentration-dependently rescued | significantly decreased | alleviating synovitis; also recorded: alleviated |
